# According to patent US8987474B2 (University of South Florida, priority 2006, dated 2015):
# Target: Shp2 (Homo sapiens (Human), UniProt Q06124)
# Test: PTP activity assay (DiFMUP substrate) with GST-Shp2
# Assay type: biochemical
# Settings: for IC50: Table II, Shp2
# Text: All constructs were verified by DNA sequencing.
# Recombinant DEP1 was from Abcam.
# Sequence of Shp2 (Q06124 205-593): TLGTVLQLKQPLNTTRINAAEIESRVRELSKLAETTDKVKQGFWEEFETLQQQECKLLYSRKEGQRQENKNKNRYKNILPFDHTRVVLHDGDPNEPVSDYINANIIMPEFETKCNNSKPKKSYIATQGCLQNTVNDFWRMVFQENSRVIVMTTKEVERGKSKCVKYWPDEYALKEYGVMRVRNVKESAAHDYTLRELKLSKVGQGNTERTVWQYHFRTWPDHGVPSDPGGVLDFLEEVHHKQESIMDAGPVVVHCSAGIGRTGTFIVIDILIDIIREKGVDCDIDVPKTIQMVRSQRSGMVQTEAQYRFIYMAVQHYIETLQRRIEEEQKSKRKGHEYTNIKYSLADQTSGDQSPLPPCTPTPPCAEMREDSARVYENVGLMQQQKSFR
SMILES,IC50 [µM],% PTP activity (concentration not given),% PTP activity (at 20 μM)
O=C1Nc2ccccc2/C1=N/Nc1ccccc1Cl [HL1-050-1],33 to 100,99 ± 2% (3),
O=C(O)c1ccc2cc(C(=O)Nc3ccccc3)ccc2c1 [RPM183],,79 ± 16 (7) %,
"O=C1Nc2ccc(C(=O)O)cc2/C1=N/Nc1ccccc1 [RPM272, 3-(Phenylhydrazono)-2-oxo-2,3-dihydro-1H-indole-5-carboxylic acid]",,,43 ± 4% at 20 μM
O=C1Nc2ccc(C(=O)NCc3ccc(Cl)cc3)cc2/C1=N/Nc1cccc(C(=O)O)c1 [HL2-070-9],,,25 ± 2% (2) at 20 μM
COc1ccc(CNS(=O)(=O)c2ccc3c(c2)/C(=N/Nc2ccccc2Cl)C(=O)N3)cc1 [HL2-016-3],,84 ± 24% (6),
NS(=O)(=O)c1ccc(NC(=O)c2ccc3cc(C(=O)O)ccc3c2)cc1 [RPM195],,,54 ± 6% (3) at 20 uM
"O=C1C=CC2C(=C1O)Oc1c(ccc(O)c1O)C2C1CCCCC1C(=O)O (centres unmarked) [NSC-119910, reference compound]",,0.56 ± 0.1% (3),
"Cc1ccccc1N/N=C1\C(=O)Nc2ccc(S(=O)(=O)O)cc21 [RPM216, 2-Oxo-3-[(2-methylphenylhydrazono)]-2,3-dihydro-1H-indole-5-sulfonic acid]",,,50 ± 14% (3) at 20 μM
"O=C1Nc2ccc(S(=O)(=O)O)cc2/C1=N/Nc1cccc2ccccc12 [RPM223, 3-(Naphthalen-1-ylhydrazono)-2-oxo-2,3-dihydro-1H-indole-5-sulfonic acid]",33 to 100,,76 + 12% at 20 μM
"O=C1Nc2ccc(S(=O)(=O)O)cc2/C1=N/Nc1ccccc1C(=O)O [RPM211, 2-[N′-(2-Oxo-5-sulfo-1,2-dihydro-indol-3-ylidene)hydrazino]benzoic acid]",33 to 100,,67 ± 8% at 20 μM
"CCOC(=O)c1ccc(N/C=C2\C(=O)Nc3ccc(S(=O)(=O)NC(C)C)cc32)cc1 [RPM288, 4-[(5-Isopropylsulfamoyl-2-oxo-1,2-dihydro-indol-3-ylidenemethyl)amino]benzoic acid ethyl ester]",,,30 ± 2% (2) at 20 μM
COCCNS(=O)(=O)c1ccc2c(c1)/C(=N/Nc1ccccc1Cl)C(=O)N2 [HL2-016-12],,32 ± 3% (6),
"O=C1Nc2ccc(S(=O)(=O)O)cc2/C1=N/Nc1c(Cl)cccc1Cl [RPM218, 2-Oxo-3-[(2,6-dichlorophenylhydrazono)]-2,3-dihydro-1H-indole-5-sulfonic acid]",33 to 100,,53 ± 0.1% (2) at 20 μM
CN(C)CCNS(=O)(=O)c1ccc2c(c1)/C(=N/Nc1ccccc1Cl)C(=O)N2 [HL2-016-19],,89 ± 3% (6),
"CC(C)NS(=O)(=O)c1ccc2c(c1)/C(=N/Nc1cccc(C(=O)NCCN3CCOCC3)c1)C(=O)N2 [RPM334, 3-[N′-(5-Isopropylsulfamoyl-2-oxo-1,2-dihydro-indol-3-ylidene)hydrazino]-N-(2-morpholin-4-yl-ethyl)benzamide]",,,39 ± 5% (2) at 20 μM
CN(C)CCCNS(=O)(=O)c1ccc2c(c1)/C(=N/Nc1ccccc1Cl)C(=O)N2 [HL2-016-22],,80 ± 0.7% (6),
"CC(C)NS(=O)(=O)c1ccc2c(c1)/C(=C/Nc1ccccc1C(=O)O)C(=O)N2 [RPM336, 2-[(5-Isopropylsulfamoyl-2-oxo-1,2-dihydro-indol-3-ylidenemethyl)amino]benzoic acid]",33 to 100,,48 ± 7% (2) at 20 μM
"CN(C)S(=O)(=O)c1ccc2c(c1)/C(=N/Nc1ccccc1[N+](=O)[O-])C(=O)N2 [RPM124, 3-[(2-Nitrophenyl)hydrazono]-2-oxo-2,3-dihydro-1H-indole-5-sulfonic acid dimethylamide]",33 to 100,52 ± 5% (6),
"COCCNS(=O)(=O)c1ccc2c(c1)/C(=N/Nc1ccccc1[N+](=O)[O-])C(=O)N2 [RPM171, 3-[(2-Nitrophenyl)hydrazono]-2-oxo-2,3-dihydro-1H-indole-5-sulfonic acid (2-methoxyethyl)amide]",,44 ± 8% (12),
"O=C1Nc2ccc(S(=O)(=O)O)cc2/C1=N/Nc1ccc(Cl)cc1Cl [RPM224, 2-Oxo-3-[(2,4-dichlorophenylhydrazono)]-2,3-dihydro-1H-indole-5-sulfonic acid]",33 to 100,,81 ± 10% (3) at 20 μM
"O=C1Nc2ccc(S(=O)(=O)NCc3ccncc3)cc2/C1=N/Nc1ccccc1[N+](=O)[O-] [RPM145, 3-[(2-Nitrophenyl)hydrazono]-2-oxo-2,3-dihydro-1H-indole-5-sulfonic acid (pyridin-4-ylmethyl)amide]",,37 + 11% (12),
O=C1Nc2ccc(C(=O)O)cc2/C1=N/Nc1ccccc1[N+](=O)[O-] [HL2-054],,,60.57% (1) at 20 μM

SMILES,IC50 [µM],% PTP activity (concentration not given),% PTP activity (at 20 μM)
COc1cccc(CNS(=O)(=O)c2ccc3c(c2)/C(=N/Nc2ccccc2Cl)C(=O)N3)c1 [HL2-016-5],,51 ± 4% (6),
"CC(C)NS(=O)(=O)c1ccc2c(c1)/C(=N/Nc1cccc(C(=O)NCc3ccccc3)c1)C(=O)N2 [RPM328, N-Benzyl-3-[N′-(5-isopropylsulfamoyl-2-oxo-1,2-dihydro-indol-3-ylidene)hydrazino]benzamide]",,,47 ± 3% (2) at 20 μM
"CNC(=O)c1ccccc1N/N=C1\C(=O)Nc2ccc(S(=O)(=O)NC(C)C)cc21 [RPM295, 2-[N′-(5-Isopropylsulfamoyl-2-oxo-1,2-dihydro-indol-3-ylidene)hydrazino]-N-methylbenzamide]",,,43 ± 2% (2) At 20 μM
"O=C1Cc2cc(S(=O)(=O)NCc3ccc(Cl)cc3)ccc2N1 [RPM307, 2-Oxo-2,3-dihydro-1H-indole-5-sulfonic acid 4-chloro-benzylamide]",,,39 ± 10% (20 at 20 μM
O=C1Nc2ccccc2/C1=N/Nc1ccccc1[N+](=O)[O-] [HL1-047],33 to 100,93 ± 9% (3),
COC(=O)c1cc(NC(=O)c2ccc3cc(C(=O)OC)ccc3c2)cc(C(=O)OC)c1 [HL2-026-Intermediate],33 to 100,40 ± 4% (6),
O=C1Nc2ccccc2/C1=N/Nc1cccc([N+](=O)[O-])c1 [HL1-050-2],,32 ± 3% (3),
"O=C1Nc2ccc(S(=O)(=O)NCc3cccs3)cc2/C1=N/Nc1ccccc1[N+](=O)[O-] [RPM140, 3-[(2-Nitrophenyl)hydrazono]-2-oxo-2,3-dihydro-1H-indole-5-sulfonic acid (thiophen-2-ylmethyl)amide]",,37 ± 4% (6),
COC(=O)c1ccc2cc(C(=O)Nc3ccc(C(=O)O)cc3)ccc2c1 [RPM185],,,71 ± 3% (3) at 20 uM
"CC(C)NS(=O)(=O)c1ccc2c(c1)/C(=N/Nc1ccccc1C(=O)NCCN(C)C)C(=O)N2 [RPM284, N-(2-Dimethylaminoethyl)-2-[N′-(5-isopropylsulfamoyl-2-oxo-1,2-dihydro-indol-3-ylidene)hydrazino]benzamide]",,,47 ± 6% (2) At 20 μM
"CC(C)NS(=O)(=O)c1ccc2c(c1)/C(=N/Nc1cccc(C(N)=O)c1)C(=O)N2 [RPM325, 3-[N′-(5-Isopropylsulfamoyl-2-oxo-1,2-dihydro-indol-3-ylidene)hydrazino]benzamide]",33 to 100,,40 + 4% (2) at 20 μM
O=C1Nc2ccc(C(=O)NCc3ccc(Cl)cc3)cc2/C1=N/Nc1ccccc1C(=O)O [HL2-070-4],,,30 ± 4% (2) at 20 μM
NS(=O)(=O)c1ccc2c(c1)/C(=N/Nc1ccccc1Cl)C(=O)N2 [HL2-016.2],,40 ± 8% (12),
"COCCNC(=O)c1ccccc1N/N=C1\C(=O)Nc2ccc(S(=O)(=O)NC(C)C)cc21 [RPM285, 2-[N′-(5-Isopropylsulfamoyl-2-oxo-1,2-dihydro-indol-3-ylidene)-hydrazino]-N-(2-methoxyethyl)benzamide]",,,51 ± 7% (2) At 20 μM
"CNC(=O)c1cccc(N/N=C2\C(=O)Nc3ccc(S(=O)(=O)NC(C)C)cc32)c1 [RPM330, 3-[N′-(5-Isopropylsulfamoyl-2-oxo-1,2-dihydro-indol-3-ylidene)hydrazino]-N-methylbenzamide]",,,47 ± 1% (2) at 20 μM
O=C(O)c1ccc2cc(C(=O)Nc3cccc(S(=O)(=O)O)c3)ccc2c1 [HL2-022-2],,52 ± 17% (5),
CC(C)CNS(=O)(=O)c1ccc2c(c1)/C(=N/Nc1ccccc1Cl)C(=O)N2 [HL2-016-10],,36 ± 17 (12) %,
O=C1Nc2ccc(S(=O)(=O)O)cc2/C1=N/Nc1cccc([N+](=O)[O-])c1 [HL1-058-2],33 to 100,73 ± 7% (3),
"CC(C)NS(=O)(=O)c1ccc2c(c1)/C(=C/Nc1ccc(C(=O)O)cc1)C(=O)N2 [RPM305, 4-[(5-Isopropylsulfamoyl-2-oxo-1,2-dihydro-indol-3-ylidenemethyl)amino]benzoic acid]",33 to 100,,56.77% (1) at 20 μM
"O=C(O)c1ccc2[nH]cc(C(=O)c3ccccc3)c2c1 [RPM352, 3-Benzoyl-1H-indole-5-carboxylic acid]",,,57 ± 9% (2) at 20 μM
"CC(C)NS(=O)(=O)c1ccc2c(c1)/C(=C/Nc1ccccc1[N+](=O)[O-])C(=O)N2 [RPM303, 3-[(2-Nitrophenylamino)methylene]-2-oxo-2,3-dihydro-1H-indole-5-sulfonic acid isopropylamide]",,,46 ± 1% (2) 20 μM
"O=C1Nc2ccc(S(=O)(=O)NCc3ccco3)cc2/C1=N/Nc1ccccc1[N+](=O)[O-] [RPM168, 3-[(2-Nitrophenyl)hydrazono]-2-oxo-2,3-dihydro-1H-indole-5-sulfonic acid (furan-2-ylmethyl)amide]",,42 + 4% (6),
